This experiment deals with T1, Prostaglandin G/H synthase 2 (Homo sapiens, UniProt P35354).
T1 sequence (P35354 whole entry): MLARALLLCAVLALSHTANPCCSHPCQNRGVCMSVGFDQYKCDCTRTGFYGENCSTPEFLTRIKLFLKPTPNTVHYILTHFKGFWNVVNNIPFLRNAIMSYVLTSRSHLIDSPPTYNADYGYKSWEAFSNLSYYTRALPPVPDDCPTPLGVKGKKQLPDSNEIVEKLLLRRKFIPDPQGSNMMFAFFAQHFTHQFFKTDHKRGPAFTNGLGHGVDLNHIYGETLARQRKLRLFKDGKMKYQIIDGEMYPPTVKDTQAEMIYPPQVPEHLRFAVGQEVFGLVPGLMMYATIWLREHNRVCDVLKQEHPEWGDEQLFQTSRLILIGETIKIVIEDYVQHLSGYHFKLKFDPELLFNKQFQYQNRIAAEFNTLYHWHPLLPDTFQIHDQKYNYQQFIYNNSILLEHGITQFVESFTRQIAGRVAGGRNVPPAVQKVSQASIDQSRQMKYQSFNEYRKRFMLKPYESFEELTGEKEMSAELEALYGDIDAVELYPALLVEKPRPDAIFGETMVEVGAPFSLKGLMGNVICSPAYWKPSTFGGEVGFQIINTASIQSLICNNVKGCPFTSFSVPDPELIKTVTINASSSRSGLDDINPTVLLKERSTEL
In words: Inhibition of recombinant human COX2 expressed in baculovirus infected Sf9 insect cells using arachidonic acid as substrate preincubated for 10 mins followed by substrate addition and measured after 10 mins by ELISA.

Take `CCC(=O)NS(=O)(=O)c1ccc(-c2c(-c3ccccc3)noc2C)cc1` [PARECOXIB]: the IC50 amounted to 5 nM.

Broadly, the IC50 is the concentration that inhibits the measured activity by half.
